Results: patent US20260317314A1, “NITROGEN-CONTAINING HETEROCYCLIC COMPOUND AND USE THEREOF” (JIANGSU DEYUAN PHARMACEUTICAL CO.,LTD., priority 2023, published 2026)

Key:
[1] = target: T1, CYP2D6 (Homo sapiens, UniProt P10635); experiment: Human liver microsome CYP inhibition assay, CYP2D6; assay type: in vitro ADME; settings: role: inhibitor; human liver microsomes, probe substrate; read-out: CYP2D6 half maximal inhibitory concentration IC50
T1 construct: Mixed human liver microsomes (HLM) were purchased from Corning Inc; tissue Corning Inc; host or cells: mixed human liver microsomes (HLM)
Procedure: (§1) Experimental objective: To evaluate the inhibitory activity of the test substance on human liver microsomal cytochrome P450 isoenzymes (CYP1A2, CYP2C9, CYP2C19, CYP2D6, CYP3A4) using a 5-in-1 probe substrate for CYP isoenzymes.
(§2) Mixed human liver microsomes (HLM) were purchased from Corning Inc. (Steuben, New York, USA) and stored at temperatures below −70° C. prior to use.
(§3) The working solution of the test substance, which had been diluted to a series of concentrations, was added to an incubation system containing human liver microsomes, probe substrates, and auxiliary factors of the circulatory system. A control containing solvent but no test substance served as an enzyme activity control (100%). The concentration of metabolites produced from probe substrates in the samples was determined using Liquid Chromatography-Tandem Mass Spectrometry (LC-MS/MS) method. Non-linear regression analysis of the average percentage activity of the test substance against its concentration was conducted using SigmaPlot (V.11). The IC50 values were calculated using a three-parameter or four-parameter inverse log equation.

[2] = Plasma protein binding rate test, SD rat (equilibrium dialysis); assay type: in vitro ADME; settings: 37° C., read-out: Plasma protein binding rate (%) in SD rats (converted)
From the text: (§4) The sample was thoroughly mixed.

[3] = In vitro liver microsome metabolic stability study; assay type: in vitro ADME; settings: human liver microsomes 0.5 mg/mL, compound 1 μM, 37° C., up to 60 minutes; read-out: Intrinsic hepatic clearance CLint(liver)
Procedure: Stock solution: 10 mM in DMSO.
Only 54 μL of microsomal working solution, 6 μL of NADPH regeneration system working solution, and 180 μL of stop solution were added to the blank plate.
LC-MS/MS analysis was performed.

[4] = target: T2, CYP3A4 (Homo sapiens, UniProt P08684); experiment: Human liver microsome CYP inhibition assay, CYP3A4; assay type: in vitro ADME; settings: role: inhibitor; human liver microsomes, probe substrate; read-out: CYP3A4 half maximal inhibitory concentration IC50
T2 construct: Mixed human liver microsomes (HLM) were purchased from Corning Inc; tissue Corning Inc; host or cells: mixed human liver microsomes (HLM)
Procedure: as §1, §2, §3

[5] = target: T3, CYP1A2 (Homo sapiens, UniProt P05177); experiment: Human liver microsome CYP inhibition assay, CYP1A2; assay type: in vitro ADME; settings: role: inhibitor; human liver microsomes, probe substrate; read-out: CYP1A2 half maximal inhibitory concentration IC50
T3 construct: Mixed human liver microsomes (HLM) were purchased from Corning Inc; tissue Corning Inc; host or cells: mixed human liver microsomes (HLM)
T3 sequence (P05177 1-516): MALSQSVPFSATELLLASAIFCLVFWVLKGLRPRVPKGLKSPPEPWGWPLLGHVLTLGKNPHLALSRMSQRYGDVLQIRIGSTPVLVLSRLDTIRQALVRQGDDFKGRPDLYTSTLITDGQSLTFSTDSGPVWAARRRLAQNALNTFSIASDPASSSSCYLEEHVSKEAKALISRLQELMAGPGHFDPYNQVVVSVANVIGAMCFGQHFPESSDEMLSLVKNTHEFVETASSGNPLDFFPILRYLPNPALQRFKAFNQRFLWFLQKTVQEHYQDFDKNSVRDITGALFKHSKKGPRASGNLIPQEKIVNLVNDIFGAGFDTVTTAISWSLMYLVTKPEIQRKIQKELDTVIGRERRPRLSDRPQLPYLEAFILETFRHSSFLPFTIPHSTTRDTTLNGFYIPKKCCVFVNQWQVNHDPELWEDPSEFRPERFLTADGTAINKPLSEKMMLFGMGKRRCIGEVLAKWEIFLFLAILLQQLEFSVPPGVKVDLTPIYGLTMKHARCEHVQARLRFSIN
Procedure: as §1, §2, §3

[6] = Plasma protein binding rate test, cynomolgus monkey (equilibrium dialysis); assay type: in vitro ADME; settings: 37° C., read-out: Plasma protein binding rate (%) in cynomolgus monkeys (converted)
From the text: as §4

[7] = Plasma protein binding rate test, human (equilibrium dialysis); assay type: in vitro ADME; settings: 37° C.
From the text: as §4

[8] = Permeability test in MDR1-MDCKII monolayer cell model; assay type: in vitro ADME; settings: dog
Procedure: Experimental objective: The permeability and efflux ratio of the compound of the present disclosure were determined using the MDR1-MDCKII monolayer cell model to assess its membrane permeability and potential for P-gp-mediated efflux transport.
Experimental protocol: MDR1-MDCKII cells (obtained from the Netherlands Cancer Institute) were seeded in 96-well plates (obtained from Corning) at a cell density of 3.33×10^5 cells/mL and cultured for 4 to 7 days to form confluent cell monolayers. Hank's balanced salt solution containing 10 mM HEPES (pH 7.40) was used as the transport buffer. The test compound was evaluated for bidirectional transport at a concentration of 2 μM, with the DMSO concentration in the incubation system maintained below 1%. After adding the samples, the cell plate was incubated at 37±1° C., 5% CO2, and saturated humidity for 2.5 hours. All samples were quantitatively analyzed using the LC-MS/MS method. The apparent permeability coefficient (Papp, cm/s) and efflux ratio (ER) were calculated using the following formula. Apparent permeability coefficient (Papp, cm/s) was calculated using the following formula: Papp=(dCr/dt)×Vr/(A×C0). Herein, dCr/dt represents the cumulative concentration of the compound at the receiving end per unit time (μM/s); Vr is the volume of the solution at the receiving end (with solution volumes at the apical and basolateral ends being 0.075 mL and 0.250 mL, respectively); A is the relative surface area of the cell monolayer (0.143 cm^2); C0 is the initial concentration of the test substance at the dosing end (μM) or the peak area ratio of the reference substance. The efflux ratio was calculated using the following formula: ER=Papp(BA)/Papp(AB).

[9] = target: T4, CYP2C19 (Homo sapiens, UniProt P33261); experiment: Human liver microsome CYP inhibition assay, CYP2C19; assay type: in vitro ADME; settings: role: inhibitor; human liver microsomes, probe substrate; read-out: CYP2C19 half maximal inhibitory concentration IC50
T4 construct: Mixed human liver microsomes (HLM) were purchased from Corning Inc; tissue Corning Inc; host or cells: mixed human liver microsomes (HLM)
Procedure: as §1, §2, §3

[10] = target: T5, CYP2C9 (Homo sapiens, UniProt P11712); experiment: Human liver microsome CYP inhibition assay, CYP2C9; assay type: in vitro ADME; settings: role: inhibitor; human liver microsomes, probe substrate; read-out: CYP2C9 half maximal inhibitory concentration IC50
T5 construct: Mixed human liver microsomes (HLM) were purchased from Corning Inc; tissue Corning Inc; host or cells: mixed human liver microsomes (HLM)
Procedure: as §1, §2, §3

[11] = target: T6, human CYP11B2 (Homo sapiens, UniProt P19099); experiment: In vitro activity assay of monoclonal cells overexpressing human CYP11B2; assay type: cell-based; settings: G402 cells overexpressing human CYP11B2; substrate 11-deoxycorticosterone; 16 hours; aldosterone by LCMS/MS
T6 construct: expressed in transfected cells; host or cells: human renal leiomyoma G402 cell line (monoclonal cells overexpressing human CYP11B2)
T6 sequence (P19099 25-503): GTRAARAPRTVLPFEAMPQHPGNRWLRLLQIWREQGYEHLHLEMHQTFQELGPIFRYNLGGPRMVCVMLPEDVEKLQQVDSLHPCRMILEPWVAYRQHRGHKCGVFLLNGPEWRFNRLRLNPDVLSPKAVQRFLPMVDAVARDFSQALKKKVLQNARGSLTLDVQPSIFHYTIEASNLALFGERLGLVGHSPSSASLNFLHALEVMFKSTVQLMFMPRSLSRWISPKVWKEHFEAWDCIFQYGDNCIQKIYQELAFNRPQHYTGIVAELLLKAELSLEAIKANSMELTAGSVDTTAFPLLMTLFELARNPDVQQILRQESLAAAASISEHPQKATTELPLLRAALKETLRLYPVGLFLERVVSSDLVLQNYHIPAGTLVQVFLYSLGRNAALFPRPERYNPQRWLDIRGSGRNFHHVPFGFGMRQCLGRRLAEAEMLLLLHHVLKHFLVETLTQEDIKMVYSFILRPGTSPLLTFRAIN
Procedure: The human renal leiomyoma G402 cell line overexpressing human CYP11B2 was selected to serve as a compound activity screening system.
• 2) Compound details: The test compound was prepared as a 10 μM working concentration using DMSO.
Day 1: Cells were digested, and human renal leiomyoma G402 cells overexpressing human CYP11B2 were resuspended to 1×10^5 cells/mL, with 100 μL seeded into a 96-well plate.
Day 2: The medium was replaced with DMEM/F12 containing 2.5% charcoal-stripped fetal bovine serum; test compounds were added: 5 μL of test compound was added to the cell culture medium to achieve final concentrations of 10000, 2500, 625, 156.25, 39.06, 9.77, 2.44, 0.61, 0.15, and 0 nM (with a DMSO content of 0.1%).
After one hour, the substrate was added: 30 mM 11-deoxycorticosterone was diluted 1500-fold with culture medium, and 5 μL was dispensed per well to achieve a final concentration of […], followed by incubation for 16 hours.
(§5) Day 3: The cell supernatant was collected and added to 200 μL of a methanol solution containing internal standards (internal standards: 35 ng/mL ketoprofen or 7.5 ng/mL carbamazepine or 5 ng/mL diphenhydramine or 10 ng/mL tolbutamide). The mixture was vortexed and centrifuged (4000×g, 4° C., 5 minutes). Then, 100 μL of the supernatant was taken and mixed with 100 μL of pure water. The mixture was centrifuged (4000 g, 4° C., 15 min), and the supernatant was analyzed by ESI-LCMS/MS. • 4) Data analysis:
Ratio=Aldosterone peak area/Internal standard peak area
Control activity %=(Ratio test compound/Ratio DMSO)×100%
“Ratio test compound” represents the Ratio values at different concentrations of the test compound.
“Ratio DMSO” represents the Ratio value without the addition of the test compound. • X=Log (compound concentration) • Y=Control activity %
(§6) The IC50 of the test compound was determined by fitting to a nonlinear regression equation using XLfit 5.5.0.

[12] = target: T7, human CYP11B1 (Homo sapiens, UniProt P15538); experiment: In vitro activity assay of monoclonal cells overexpressing human CYP11B1; assay type: cell-based; settings: G402 cells overexpressing human CYP11B1; substrate 11-deoxycortisol 1 μM; 16 hours
T7 construct: expressed in transfected cells; host or cells: human renal leiomyoma G402 cell line (monoclonal cells overexpressing human CYP11B1)
T7 sequence (P15538 25-503): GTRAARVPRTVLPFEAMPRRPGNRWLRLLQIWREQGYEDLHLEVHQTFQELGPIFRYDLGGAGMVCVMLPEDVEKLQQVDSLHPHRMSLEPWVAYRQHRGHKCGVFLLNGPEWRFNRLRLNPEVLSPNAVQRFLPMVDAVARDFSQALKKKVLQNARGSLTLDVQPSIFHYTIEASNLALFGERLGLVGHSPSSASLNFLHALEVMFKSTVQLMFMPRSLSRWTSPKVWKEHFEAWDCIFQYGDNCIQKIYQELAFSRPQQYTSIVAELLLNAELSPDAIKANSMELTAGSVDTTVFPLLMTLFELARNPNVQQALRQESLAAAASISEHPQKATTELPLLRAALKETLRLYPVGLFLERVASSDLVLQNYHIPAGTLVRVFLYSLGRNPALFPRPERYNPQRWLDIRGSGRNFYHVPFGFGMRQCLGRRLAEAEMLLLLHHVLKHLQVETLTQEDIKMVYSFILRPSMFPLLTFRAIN
Procedure: The human renal leiomyoma G402 cell line overexpressing human CYP11B1 was selected to serve as a compound selectivity screening system. Details are as follows: • 1) The cells, reagents, and instrument information were consistent with Experimental Example 1 (activity of monoclonal cells overexpressing human CYP11B2). • 2) Compound details: The test compound was prepared as a […] working concentration using DMSO. • 3) Experimental procedure
Day 1: Cells were digested, and human renal leiomyoma G402 cells overexpressing CYP11B1 were resuspended to 1×10^5 cells/mL, with […] seeded into a 96-well plate.
Day 2: The medium was replaced with DMEM/F12 containing 2.5% charcoal-stripped fetal bovine serum.
After one hour, the substrate was added: 30 mM 11-deoxycortisol was diluted 1500-fold with culture medium, and 5 μL was dispensed per well to achieve a final concentration of 1 μM, followed by incubation for 16 hours.
as §5, with “The mixture was vortexed and centrifuged (4000×g, 4° C., 5 minutes). Then, 100 μL of the supernatant was taken and mixed with 100 μL of pure water.” left out, “analysis: […]” for “analysis:”
as §6

T2 sequence (P08684 whole entry): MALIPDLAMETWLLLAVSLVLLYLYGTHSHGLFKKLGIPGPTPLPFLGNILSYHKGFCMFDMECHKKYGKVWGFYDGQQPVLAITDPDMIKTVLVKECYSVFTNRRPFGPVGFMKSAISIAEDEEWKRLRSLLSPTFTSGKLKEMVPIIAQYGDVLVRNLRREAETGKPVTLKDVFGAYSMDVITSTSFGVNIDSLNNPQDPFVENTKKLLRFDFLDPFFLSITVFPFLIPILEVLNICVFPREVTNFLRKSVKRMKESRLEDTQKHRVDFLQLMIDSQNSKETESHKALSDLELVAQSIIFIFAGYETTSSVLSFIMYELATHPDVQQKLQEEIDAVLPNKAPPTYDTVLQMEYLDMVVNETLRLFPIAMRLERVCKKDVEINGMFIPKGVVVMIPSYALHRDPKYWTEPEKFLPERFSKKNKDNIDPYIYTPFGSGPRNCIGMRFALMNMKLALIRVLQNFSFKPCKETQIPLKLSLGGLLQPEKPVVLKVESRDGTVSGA
T4 sequence (P33261 whole entry): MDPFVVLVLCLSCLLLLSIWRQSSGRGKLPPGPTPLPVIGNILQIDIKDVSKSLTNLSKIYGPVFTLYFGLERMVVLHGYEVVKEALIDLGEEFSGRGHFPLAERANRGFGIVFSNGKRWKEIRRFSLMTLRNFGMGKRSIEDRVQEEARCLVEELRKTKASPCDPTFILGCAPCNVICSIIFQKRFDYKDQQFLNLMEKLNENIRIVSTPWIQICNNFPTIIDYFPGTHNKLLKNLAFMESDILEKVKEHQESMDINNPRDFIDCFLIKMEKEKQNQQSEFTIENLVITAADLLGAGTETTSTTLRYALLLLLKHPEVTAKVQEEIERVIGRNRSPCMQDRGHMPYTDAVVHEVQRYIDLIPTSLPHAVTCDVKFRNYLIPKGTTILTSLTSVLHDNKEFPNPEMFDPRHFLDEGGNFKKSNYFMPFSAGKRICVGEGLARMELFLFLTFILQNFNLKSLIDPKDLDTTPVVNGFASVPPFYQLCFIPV
T5 sequence (P11712 whole entry): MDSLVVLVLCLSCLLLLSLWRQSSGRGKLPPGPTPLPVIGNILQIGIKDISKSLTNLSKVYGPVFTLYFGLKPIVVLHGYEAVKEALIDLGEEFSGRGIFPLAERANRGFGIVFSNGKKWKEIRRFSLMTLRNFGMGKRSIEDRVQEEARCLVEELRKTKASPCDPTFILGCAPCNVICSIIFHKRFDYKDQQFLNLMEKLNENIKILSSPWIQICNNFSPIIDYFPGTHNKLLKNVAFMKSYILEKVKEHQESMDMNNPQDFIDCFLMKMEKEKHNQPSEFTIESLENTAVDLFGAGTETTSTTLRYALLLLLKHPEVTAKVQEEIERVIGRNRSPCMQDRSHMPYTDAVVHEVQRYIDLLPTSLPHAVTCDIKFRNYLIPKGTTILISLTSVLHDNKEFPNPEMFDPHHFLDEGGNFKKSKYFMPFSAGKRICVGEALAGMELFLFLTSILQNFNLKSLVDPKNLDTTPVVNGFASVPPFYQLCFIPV
T1 sequence (P10635 whole entry): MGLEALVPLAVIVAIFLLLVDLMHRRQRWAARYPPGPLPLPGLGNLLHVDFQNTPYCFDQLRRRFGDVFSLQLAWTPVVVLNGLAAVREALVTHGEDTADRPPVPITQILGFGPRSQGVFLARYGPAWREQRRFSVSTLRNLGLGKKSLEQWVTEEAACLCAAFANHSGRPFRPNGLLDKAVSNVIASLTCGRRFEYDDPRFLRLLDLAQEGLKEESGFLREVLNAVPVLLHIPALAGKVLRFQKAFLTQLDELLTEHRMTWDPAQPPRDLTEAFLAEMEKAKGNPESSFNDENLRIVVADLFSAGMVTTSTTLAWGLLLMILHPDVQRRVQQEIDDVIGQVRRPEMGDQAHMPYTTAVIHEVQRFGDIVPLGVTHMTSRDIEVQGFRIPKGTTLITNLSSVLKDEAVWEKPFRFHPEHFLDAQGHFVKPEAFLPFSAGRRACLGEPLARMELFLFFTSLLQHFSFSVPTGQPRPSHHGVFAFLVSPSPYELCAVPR

## CCC(=O)NC1CCCc2c(-c3ccc4c(c3)OCC(=O)N4C)cncc21 (single isomer, unassigned) [Compound 011]
[1]
  IC50: > 50 µM
[2]
  fraction unbound at 4 h: 0.139
[3]
  CLint scaled at 1 µM: < 8.6 mL/min/kg
[4]
  IC50: > 50 µM
[5]
  IC50: > 50 µM
[6]
  fraction unbound at 4 h: 0.245
[7]
  fraction unbound at 4 h: 0.245
[8]; MDCK-MDR1, pH 7.4, ER=Papp(BA)/Papp(AB)
  efflux ratio at 2.5 h, 2 µM: 0.89
[8]; MDCK-MDR1, pH 7.4, pH 7.40, 2.5 hours, 37±1° C., read-out: Apparent permeability coefficient (Papp (AB))
  Papp A→B at 2.5 h, 2 µM: 24.3 ×10⁻⁶ cm/s
[9]
  IC50: > 50 µM
[10]
  IC50: > 50 µM

## CCC(=O)N[C@@H]1CCCc2c(-c3cnc4c(ccc(=O)n4C)c3)cncc21 (single isomer, unassigned) [Compound 022]
[11]
  IC50: 0.0487 µM
[12]
  IC50: 6.89 µM
